Results reported in ChEMBL document CHEMBL1201862, “PubChem BioAssay data set” (2004).
Calls of active or inactive are those of the source.

Tests used:
Cannabinoid receptor 2 [1] = target: T1, Cannabinoid receptor 2 (Homo sapiens, UniProt P34972); test: SAR analysis of antagonists of the Cannabinoid Receptor 2 using an Image-Based Assay - Set 2. [Related pubchem assays (depositor defined):AID1961, AID1965]; type: functional
[2] = target: G-protein coupled receptor 55 (Homo sapiens, UniProt Q9Y2T6); test: SAR analysis of selective Agonists of GPR55 using an Image-Based Assay - Set 2. [Related pubchem assays (depositor defined):AID1961, AID1965]; type: functional
G-protein coupled receptor 55, sequence (Q9Y2T6 whole entry): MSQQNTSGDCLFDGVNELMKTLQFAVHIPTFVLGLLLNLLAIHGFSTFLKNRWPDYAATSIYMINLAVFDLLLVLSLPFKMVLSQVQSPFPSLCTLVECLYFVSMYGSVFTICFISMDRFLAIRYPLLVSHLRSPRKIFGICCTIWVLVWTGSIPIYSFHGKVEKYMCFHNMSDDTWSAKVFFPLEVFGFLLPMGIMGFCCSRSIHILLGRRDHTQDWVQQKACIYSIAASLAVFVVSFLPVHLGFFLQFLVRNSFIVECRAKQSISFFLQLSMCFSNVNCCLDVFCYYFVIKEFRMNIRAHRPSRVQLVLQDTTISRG

Cannabinoid receptor 2 [3] = target: T1, Cannabinoid receptor 2; test: SAR analysis of agonists of the Cannabinoid Receptor 2 using an Image-Based Assay - Set 2. [Related pubchem assays (depositor defined):AID1961, AID1965]; type: functional
[4] = target: T2, G-protein coupled receptor 35 (Homo sapiens, UniProt Q9HC97); test: SAR analysis of Agonists of the GPR35 Receptor using an Image-Based Assay - Set 3. [Related pubchem assays (depositor defined):AID1961, AID1965]; type: functional
T2 sequence (Q9HC97 whole entry): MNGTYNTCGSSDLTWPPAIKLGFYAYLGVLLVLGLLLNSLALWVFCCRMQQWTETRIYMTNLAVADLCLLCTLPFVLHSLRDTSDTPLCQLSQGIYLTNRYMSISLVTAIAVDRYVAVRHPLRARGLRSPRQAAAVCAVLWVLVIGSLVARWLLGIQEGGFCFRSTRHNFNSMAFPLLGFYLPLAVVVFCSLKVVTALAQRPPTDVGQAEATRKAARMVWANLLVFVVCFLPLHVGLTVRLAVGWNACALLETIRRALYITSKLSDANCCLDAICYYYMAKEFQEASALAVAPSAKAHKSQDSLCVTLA

Cannabinoid receptor 1 [5] = target: T3, Cannabinoid receptor 1 (Homo sapiens, UniProt P21554); test: SAR analysis of antagonists of the Cannabinoid Receptor 1 using an Image-Based Assay - Set 3. [Related pubchem assays (depositor defined):AID1961, AID1965]; type: functional
T3 sequence (P21554 whole entry): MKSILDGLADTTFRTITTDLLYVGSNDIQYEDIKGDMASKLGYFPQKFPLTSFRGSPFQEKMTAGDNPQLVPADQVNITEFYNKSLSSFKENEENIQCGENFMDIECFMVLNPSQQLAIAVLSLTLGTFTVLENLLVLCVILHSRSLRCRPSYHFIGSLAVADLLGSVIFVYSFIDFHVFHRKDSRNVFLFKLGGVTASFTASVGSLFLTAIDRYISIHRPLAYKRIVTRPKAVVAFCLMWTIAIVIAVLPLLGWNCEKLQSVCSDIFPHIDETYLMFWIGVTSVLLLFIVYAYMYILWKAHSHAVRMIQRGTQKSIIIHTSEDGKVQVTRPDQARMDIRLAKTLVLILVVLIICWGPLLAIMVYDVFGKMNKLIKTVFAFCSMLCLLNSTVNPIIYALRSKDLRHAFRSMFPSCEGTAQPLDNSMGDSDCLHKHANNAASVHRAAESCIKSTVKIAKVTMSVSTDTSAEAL

Cannabinoid receptor 1 [6] = target: T3, Cannabinoid receptor 1; test: SAR analysis of agonists of the Cannabinoid Receptor 1 using an Image-Based Assay - Set 3. [Related pubchem assays (depositor defined):AID1961, AID1965]; type: functional
[7] = target: T2, G-protein coupled receptor 35; test: SAR analysis of Antagonists of the GPR35 Receptor using an Image-Based Assay - Set 4. [Related pubchem assays (depositor defined):[…]]; type: functional
[8] = target: T4, Protein phosphatase methylesterase 1 (Homo sapiens, UniProt Q9Y570); test: Late stage results from the probe development effort to identify inhibitors of the protein methylesterase PME-1: Gel-based Activity-Based Protein Profiling (ABPP) IC50: Purified enzyme.; type: functional
T4 sequence (Q9Y570 whole entry): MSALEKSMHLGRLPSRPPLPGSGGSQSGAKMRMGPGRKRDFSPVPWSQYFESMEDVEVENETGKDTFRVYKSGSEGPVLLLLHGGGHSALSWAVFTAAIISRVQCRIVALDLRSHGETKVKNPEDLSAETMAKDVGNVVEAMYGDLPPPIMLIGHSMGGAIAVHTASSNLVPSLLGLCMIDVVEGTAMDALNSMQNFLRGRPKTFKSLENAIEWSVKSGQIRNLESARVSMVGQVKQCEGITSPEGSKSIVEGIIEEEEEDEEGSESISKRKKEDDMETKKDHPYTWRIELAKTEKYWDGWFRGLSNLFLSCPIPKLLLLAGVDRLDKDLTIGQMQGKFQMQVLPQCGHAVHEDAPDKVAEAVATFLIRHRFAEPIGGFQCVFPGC

[9] = target: T4, Protein phosphatase methylesterase 1; test: PME-1 inhibitor potency by in-gel ABPP, dose response, selectivity assay for PME-1 inhibitor project, cell lysate, mouse brain cytosol, FP-rhodamine, panel member PME-1 Assay Panel member description: Inhibition of endogenously expressed PME-1 (AID 2366)
[10] = target: T5, Mannose-6-phosphate isomerase (Homo sapiens, UniProt P34949); test: Confirmation of compounds inhibiting phosphomannose isomerase (PMI) via a fluorescence intensity assay using a high concentration of mannose 6-phosphate. [Related pubchem assays (depositor defined):AID1209, AID1220, AID1545, AID1553, AID1620]
T5 sequence (P34949 whole entry): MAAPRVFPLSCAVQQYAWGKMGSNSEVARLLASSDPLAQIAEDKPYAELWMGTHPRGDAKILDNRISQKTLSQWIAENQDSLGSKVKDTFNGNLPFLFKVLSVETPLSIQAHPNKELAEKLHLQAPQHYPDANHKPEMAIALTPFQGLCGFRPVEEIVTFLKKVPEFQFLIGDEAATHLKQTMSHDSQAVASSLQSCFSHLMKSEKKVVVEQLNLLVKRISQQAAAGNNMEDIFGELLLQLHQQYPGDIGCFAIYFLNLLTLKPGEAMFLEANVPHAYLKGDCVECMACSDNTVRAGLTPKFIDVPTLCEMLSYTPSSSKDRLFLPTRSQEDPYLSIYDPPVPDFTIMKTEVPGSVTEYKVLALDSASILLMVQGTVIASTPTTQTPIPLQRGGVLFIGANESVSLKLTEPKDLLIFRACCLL

[11] = target: T5, Mannose-6-phosphate isomerase; test: PMI enzyme inhibitors, confirmation, biochemical, fluorescence intensity (AID 1535)
Phosphomannomutase 2 = target: T6, Phosphomannomutase 2 (Homo sapiens, UniProt O15305); test: Counter screen SAR assay for PMM2 inhibitors via a fluorescence intensity assay. [Related pubchem assays (depositor defined):AID1545, AID1574]
T6 sequence (O15305 whole entry): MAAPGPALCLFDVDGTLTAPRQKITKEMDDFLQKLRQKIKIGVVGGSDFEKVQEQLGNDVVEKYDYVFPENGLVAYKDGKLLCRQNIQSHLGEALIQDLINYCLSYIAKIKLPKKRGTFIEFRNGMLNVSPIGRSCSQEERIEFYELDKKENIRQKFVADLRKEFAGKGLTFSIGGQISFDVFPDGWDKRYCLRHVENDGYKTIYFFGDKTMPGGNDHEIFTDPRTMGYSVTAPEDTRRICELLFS

[12] = target: Phosphoethanolamine/phosphocholine phosphatase (Homo sapiens, UniProt Q8TCT1); test: SAR assay for compounds that inhibit PHOSPHO1. [Related pubchem assays (depositor defined):AID1545, AID1565, AID1574]
Phosphoethanolamine/phosphocholine phosphatase, sequence (Q8TCT1 whole entry): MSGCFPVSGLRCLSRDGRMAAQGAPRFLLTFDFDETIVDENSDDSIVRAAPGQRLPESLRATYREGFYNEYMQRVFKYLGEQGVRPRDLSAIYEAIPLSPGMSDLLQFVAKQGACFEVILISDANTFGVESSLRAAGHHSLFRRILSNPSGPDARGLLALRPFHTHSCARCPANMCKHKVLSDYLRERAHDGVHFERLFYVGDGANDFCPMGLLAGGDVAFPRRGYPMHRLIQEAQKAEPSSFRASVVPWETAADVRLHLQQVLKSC

[13] = target: T7, Alkaline phosphatase, tissue-nonspecific isozyme (Homo sapiens, UniProt P05186); test: human TNAP enzyme inhibitors, SAR follow-up, biochemical, luminescent, dose response (AID 1056)
T7 sequence (P05186 whole entry): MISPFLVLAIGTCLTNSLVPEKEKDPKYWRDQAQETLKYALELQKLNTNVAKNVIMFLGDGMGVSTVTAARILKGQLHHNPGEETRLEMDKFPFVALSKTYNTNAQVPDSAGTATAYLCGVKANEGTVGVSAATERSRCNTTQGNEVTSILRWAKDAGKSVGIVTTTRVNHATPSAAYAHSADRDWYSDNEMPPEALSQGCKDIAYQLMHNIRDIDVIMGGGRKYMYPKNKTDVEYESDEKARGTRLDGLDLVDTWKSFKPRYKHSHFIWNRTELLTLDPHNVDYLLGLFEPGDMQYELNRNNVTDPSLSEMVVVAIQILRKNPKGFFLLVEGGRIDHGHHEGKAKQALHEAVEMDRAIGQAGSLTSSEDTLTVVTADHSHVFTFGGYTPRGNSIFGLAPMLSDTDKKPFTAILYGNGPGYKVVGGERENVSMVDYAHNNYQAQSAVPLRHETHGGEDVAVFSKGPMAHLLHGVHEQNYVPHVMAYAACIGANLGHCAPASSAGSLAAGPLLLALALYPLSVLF

J774.A1 = test: Confirmation of image-based Screening Assay for Inhibitors of Phagocytosis. [Related pubchem assays (depositor defined):AID1029, AID1643]; type: functional, cell-based; details: Mus musculus
[14] = cytotoxicity in HEK-293T cells, dose response, cytotoxicity control for TCR NF-kB inhibitor project, luminescence, T-cell screen hits (AID 489026); type: functional, cell-based;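 further: cells exposed to compound about 14 hours before the viability readout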
[15] = target: DNA dC->dU-editing enzyme APOBEC-3A (Homo sapiens, UniProt P31941); test: APOBEC3A DNA deaminase inhibitors, dose response, biochemical (AID 504722); type: functional
DNA dC->dU-editing enzyme APOBEC-3A, sequence (P31941 whole entry): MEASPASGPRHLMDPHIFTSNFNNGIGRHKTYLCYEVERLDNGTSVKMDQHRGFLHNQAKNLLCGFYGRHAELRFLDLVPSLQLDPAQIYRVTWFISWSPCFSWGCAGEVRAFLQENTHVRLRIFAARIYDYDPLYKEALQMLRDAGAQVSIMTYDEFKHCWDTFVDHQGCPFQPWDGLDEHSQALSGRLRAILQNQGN

[16] = target: DNA dC->dU-editing enzyme APOBEC-3G (Homo sapiens, UniProt Q9HC16); test: Dose Response confirmation of small molecule APOBEC3G DNA Deaminase Inhibitors via a fluorescence-based single-stranded DNA deaminase assay. [Related pubchem assays (depositor defined):AID493012, AID493028]; type: functional
DNA dC->dU-editing enzyme APOBEC-3G, sequence (Q9HC16 whole entry): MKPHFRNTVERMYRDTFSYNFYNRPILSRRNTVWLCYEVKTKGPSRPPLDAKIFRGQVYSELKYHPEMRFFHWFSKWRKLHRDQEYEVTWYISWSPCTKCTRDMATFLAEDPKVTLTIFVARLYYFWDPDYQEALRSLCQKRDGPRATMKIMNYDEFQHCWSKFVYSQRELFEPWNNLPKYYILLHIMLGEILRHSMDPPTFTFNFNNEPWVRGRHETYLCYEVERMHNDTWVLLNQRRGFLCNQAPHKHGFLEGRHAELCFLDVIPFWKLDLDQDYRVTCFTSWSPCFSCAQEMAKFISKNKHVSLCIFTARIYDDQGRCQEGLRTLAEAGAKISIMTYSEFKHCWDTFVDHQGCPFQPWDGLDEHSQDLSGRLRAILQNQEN

[17] = target: T8, Sphingosine 1-phosphate receptor 4 (Homo sapiens, UniProt O95977); test: Late-stage fluorescence dose response cell-based assay to identify agonists of the Sphingosine 1-Phosphate Receptor 4 (S1P4): purchased compounds EC50. [Related pubchem assays (depositor defined):AID1509, AID1523, AID1563, AID1686, AID1701, AID1801]; type: functional
T8 sequence (O95977 whole entry): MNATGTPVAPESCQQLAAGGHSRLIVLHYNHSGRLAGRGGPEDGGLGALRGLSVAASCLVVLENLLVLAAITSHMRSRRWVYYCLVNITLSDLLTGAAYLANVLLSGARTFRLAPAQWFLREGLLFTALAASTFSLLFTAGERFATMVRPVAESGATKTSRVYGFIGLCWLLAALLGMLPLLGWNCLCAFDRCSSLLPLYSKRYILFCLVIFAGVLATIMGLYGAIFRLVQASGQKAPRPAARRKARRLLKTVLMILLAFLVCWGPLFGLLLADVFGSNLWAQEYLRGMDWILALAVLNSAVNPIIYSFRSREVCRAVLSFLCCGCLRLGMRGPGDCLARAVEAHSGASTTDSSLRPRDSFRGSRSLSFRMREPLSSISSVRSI

Troponin, cardiac muscle = Troponin, cardiac muscle (Homo sapiens, UniProt P19429+P45379+P63316); test: Fluorescence-based biochemical high throughput dose response assay for activators of the calcium sensitivity of cardiac Regulated Thin Filaments (RTF). [Related pubchem assays (depositor defined):AID493008, AID493018, AID504382, AID504383]; type: protein-complex assay
[18] = NIH-3T3 fibroblast cytotoxicity, dose response, cytotoxicity control, cell-based, fluorescence, Alamar Blue, secondary assay (AID 2327); type: functional;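 further: NIH-3T3 mouse fibroblasts cultured with fluconazole at 8 µg/mL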
[19] = inhibitors of firefly luciferase expression or activity, dose response, H4 neuroglioma cells, luminescence (AID 1990); type: functional, cell-based
BJ [20] = test: cytotoxicity toward BJ-TERT fibroblasts, dose response, cell-based, RAS-independent, luminescence (AID 1933); type: functional; details: Homo sapiens
[21] = Luminescence Cell-Based Dose Response HTS to Identify Inhibitors of 5'UTR Stem-Loop Driven Prion Protein mRNA Translation in H4 Neuroglioblastoma Cells. [Related pubchem assays: 1827 (Project Summary), 1813 (Primary HTS)]; type: functional
[22] = inhibitors of SNCA 5'UTR-driven reporter translation, confirmation, H4 neuroglioma cells, luminescence (AID 1988); type: functional, cell-based
BJ [23] = test: cells; type: functional, cell-based; details: Homo sapiens
[24] = C. albicans growth with fluconazole, confirmation, fluorescence, retest (AID 2467); type: functional, cell-based
[25] = microbe, parasite or virus in culture; type: functional; details: Mycobacterium tuberculosis
BJ [26] = test: cytotoxicity toward BJ-TERT-LT-ST fibroblasts, dose response, cell-based, RAS-independent, luminescence (AID 1935); type: functional; details: Homo sapiens;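 further: BJ fibroblasts immortalized with TERT plus LT and ST oncogenes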
[27] = cytotoxicity toward DRD oncogenic fibroblasts, dose response, cell-based, non-viral oncogenic, luminescence (AID 1934); type: functional; details: Homo sapiens
[28] = target: NACHT, LRR and PYD domains-containing protein 3 (Homo sapiens, UniProt Q96P20); test: NALP3 inhibitors in yeast, dose response, luminescent (AID 488799); type: functional
NACHT, LRR and PYD domains-containing protein 3, sequence (Q96P20 whole entry, the tested form may be a part): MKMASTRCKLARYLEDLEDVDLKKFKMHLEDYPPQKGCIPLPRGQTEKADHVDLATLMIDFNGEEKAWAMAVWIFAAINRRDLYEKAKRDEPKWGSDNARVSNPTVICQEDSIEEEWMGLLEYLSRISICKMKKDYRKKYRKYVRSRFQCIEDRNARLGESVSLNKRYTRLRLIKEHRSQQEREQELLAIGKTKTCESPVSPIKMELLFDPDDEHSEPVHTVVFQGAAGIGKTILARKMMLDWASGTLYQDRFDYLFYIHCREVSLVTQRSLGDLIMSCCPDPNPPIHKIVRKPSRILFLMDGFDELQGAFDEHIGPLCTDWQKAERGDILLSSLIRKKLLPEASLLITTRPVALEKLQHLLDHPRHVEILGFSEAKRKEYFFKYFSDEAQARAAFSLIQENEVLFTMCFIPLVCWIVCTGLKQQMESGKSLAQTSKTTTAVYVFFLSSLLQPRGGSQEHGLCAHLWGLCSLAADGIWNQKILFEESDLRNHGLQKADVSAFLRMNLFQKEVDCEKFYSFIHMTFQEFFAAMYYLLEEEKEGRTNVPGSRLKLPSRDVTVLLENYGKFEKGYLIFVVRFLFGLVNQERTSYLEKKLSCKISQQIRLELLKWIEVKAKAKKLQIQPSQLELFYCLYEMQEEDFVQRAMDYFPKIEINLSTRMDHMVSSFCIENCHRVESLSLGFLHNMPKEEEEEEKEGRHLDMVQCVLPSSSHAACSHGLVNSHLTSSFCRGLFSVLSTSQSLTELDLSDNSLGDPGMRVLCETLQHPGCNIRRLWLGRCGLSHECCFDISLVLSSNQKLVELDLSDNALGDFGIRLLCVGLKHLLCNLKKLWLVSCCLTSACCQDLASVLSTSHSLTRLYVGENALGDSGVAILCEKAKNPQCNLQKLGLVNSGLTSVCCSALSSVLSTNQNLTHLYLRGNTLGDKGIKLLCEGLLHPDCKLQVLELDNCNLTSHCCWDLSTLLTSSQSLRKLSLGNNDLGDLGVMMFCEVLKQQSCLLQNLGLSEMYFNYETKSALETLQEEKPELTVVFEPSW

INS1 = test: beta cell apoptosis inhibitors, cytokine rescue, dose response, luminescence, retest (AID 449756); type: functional, cell-based; details: Rattus norvegicus, INS1;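 further: cell death triggered by IL-1 beta plus TNF-alpha plus IFN-gamma mixture; protective hits raise ATP signal compared with cytokine alone wells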
[29] = target: Mitochondrial peptide methionine sulfoxide reductase (Bos taurus, UniProt P54149); test: Absorbance-based biochemical high throughput dose response assay for activators of Methionine sulfoxide reductase A (MsrA).; type: functional
Mitochondrial peptide methionine sulfoxide reductase, sequence (P54149 whole entry): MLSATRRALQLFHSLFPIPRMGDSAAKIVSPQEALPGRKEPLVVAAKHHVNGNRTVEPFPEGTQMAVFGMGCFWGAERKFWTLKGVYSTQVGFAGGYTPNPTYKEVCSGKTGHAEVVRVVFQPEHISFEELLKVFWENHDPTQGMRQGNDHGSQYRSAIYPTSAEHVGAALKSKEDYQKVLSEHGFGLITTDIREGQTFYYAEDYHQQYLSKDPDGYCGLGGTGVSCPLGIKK

T1 sequence (P34972 whole entry): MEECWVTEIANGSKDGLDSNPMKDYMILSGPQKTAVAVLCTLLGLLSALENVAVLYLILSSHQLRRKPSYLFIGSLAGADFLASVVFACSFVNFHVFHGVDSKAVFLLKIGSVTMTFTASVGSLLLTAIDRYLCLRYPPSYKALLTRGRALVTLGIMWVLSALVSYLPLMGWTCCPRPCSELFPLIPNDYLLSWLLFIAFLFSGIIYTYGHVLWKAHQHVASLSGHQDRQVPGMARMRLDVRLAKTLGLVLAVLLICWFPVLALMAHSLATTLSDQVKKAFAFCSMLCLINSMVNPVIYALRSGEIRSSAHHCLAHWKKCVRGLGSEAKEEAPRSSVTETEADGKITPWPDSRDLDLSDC

O=C(Nc1cc(S(=O)(=O)N2CCOCC2)ccc1Cl)c1cc2c(s1)CCCC2
IC50 (Cannabinoid receptor 2 [1]): > 32 µM (inactive) | EC50 [2]: 0.779 µM (active) | EC50 (Cannabinoid receptor 2 [3]): > 32 µM (inactive) | EC50 [4]: > 32 µM (inactive) | IC50 (Cannabinoid receptor 1 [5]): > 32 µM (inactive) | EC50 (Cannabinoid receptor 1 [6]): 7.87 µM (active) | IC50 [7]: > 32 µM (inactive)

CS(=O)(=O)/C(C#N)=C/c1ccc([N+](=O)[O-])cc1
IC50 [8]: > 20 µM (not active) | IC50 [9]: > 20 µM (inactive)

Cc1ccc(C)c(-n2sc3ccccc3c2=O)c1
IC50 [10]: 5.51 µM (active) | IC50 [11]: 1.67 µM (active) | IC50 (Phosphomannomutase 2): 17.9 µM (active) | IC50 [12]: 5.04 µM (inactive) | IC50 [13]: > 100 µM (inactive)

CCN(CC)c1ccc(NC(=O)c2cc(OC)cc(OC)c2)c(C)c1
IC50 (J774.A1): 0.13 µM (active) | IC50 [14]: > 80 µM (inactive)

FC(F)Oc1ccc(/C=N/n2c(S)nnc2Cc2ccc(Br)cc2)cc1
IC50 [15]: > 100 µM (inactive) | IC50 [16]: 6.93 µM (active)

CCCc1ccc(C(=O)C(C)OC(=O)c2c(C)nn(Cc3ccccc3)c2Cl)cc1 (centres undefined)
EC50 [17]: > 50 µM (inactive)

CCOc1cc(N2CCOCC2)c(OCC)cc1NC(=O)CCS(=O)(=O)c1ccc(Cl)cc1
EC50 (Troponin, cardiac muscle): > 71.5 µM (inactive)

CCN(CC)c1ccc2nc3ccccc3[n+](CC)c2c1
EC50 [18]: 96.1 µM (active) | EC50 [19]: 11.2 µM (active) | EC50 (BJ [20]): 16.9 µM (active) | EC50 [21]: 25.9 µM (active) | EC50 [22]: 9.49 µM (active) | EC50 (BJ [23]): 23.6 µM (active) | EC50 [24]: 0.686 µM (active) | CC50 [25]: > 40 µM (active) | EC50 (BJ [26]): > 150 µM (inconclusive) | EC50 [27]: 15.2 µM (active) | IC50 [28]: 14.3 µM (active) | IC50 [14]: 48.8 µM (inactive) | AC50 (INS1): 0.602 µM (active) | EC50 [29]: 19.2 µM (inactive)
